Converted amounts (≈) assume the structure as drawn.
Key:
Candida albicans [1] = test: Antifungal activity against Candida albicans assessed as growth inhibition after 24 hrs by microbroth dilution method; type: functional
Candida dubliniensis [2] = test: Antifungal activity against Candida dubliniensis assessed as growth inhibition at 250 ug/mL after 24 hrs by hole plate diffusion method; type: functional; conditions: read-out: IZ
Pichia kudriavzevii [3] = test: Antifungal activity against Candida krusei assessed as growth inhibition after 24 hrs by microbroth dilution method; type: functional
Candida dubliniensis [4] = test: Antifungal activity against Candida dubliniensis assessed as growth inhibition after 24 hrs by microbroth dilution method; type: functional
[5] = Hemolytic activity in Swiss mouse erythrocytes at 50 ug/mL after 1 hr by spectrophotometric analysis relative to control; type: ADME, cell-based, Erythrocyte; conditions: read-out: Activity
Kluyveromyces marxianus [6] = test: Antifungal activity against Candida kefyr assessed as growth inhibition at 250 ug/mL after 24 hrs by hole plate diffusion method; type: functional; conditions: read-out: IZ
Candida albicans [7] = test: Antifungal activity against Candida albicans ATCC 90028 assessed as growth inhibition after 24 hrs by microbroth dilution method; type: functional; conditions: ATCC 90028, 24 h
[8] = Cytotoxicity against mouse NIH/3T3 cells assessed as dead cells at 12.5 ug/mL after 72 hrs by Alamar Blue assay relative to control; type: cell-based; conditions: nih3t3, 72 h
Candida parapsilosis [9] = test: Antifungal activity against Candida parapsilosis assessed as growth inhibition at 250 ug/mL after 24 hrs by hole plate diffusion method; type: functional; conditions: Lodderomyces parapsilosis, read-out: IZ
Candida albicans [10] = test: Antifungal activity against Candida albicans assessed as growth inhibition at 250 ug/mL after 24 hrs by hole plate diffusion method; type: functional; conditions: read-out: IZ
Candida tropicalis [11] = test: Antifungal activity against Candida tropicalis assessed as growth inhibition at 250 ug/mL after 24 hrs by hole plate diffusion method; type: functional; conditions: read-out: IZ
Candida tropicalis [12] = test: Antifungal activity against Candida tropicalis assessed as growth inhibition after 24 hrs by microbroth dilution method; type: functional
Kluyveromyces marxianus [13] = test: Antifungal activity against Candida kefyr assessed as growth inhibition after 24 hrs by microbroth dilution method; type: functional
Candida parapsilosis [14] = test: Antifungal activity against Candida parapsilosis assessed as growth inhibition after 24 hrs by microbroth dilution method; type: functional; conditions: Lodderomyces parapsilosis
Pichia kudriavzevii [15] = test: Antifungal activity against Candida krusei assessed as growth inhibition at 250 ug/mL after 24 hrs by hole plate diffusion method; type: functional; conditions: read-out: IZ

| SMILES | MIC (Candida albicans [1]) | zone of inhibition at 250 µg/mL (Candida dubliniensis [2]) | MIC (Pichia kudriavzevii [3]) | MIC (Candida dubliniensis [4]) | hemolysis at 1 h, 50 ug/mL [5] | zone of inhibition at 250 µg/mL (Kluyveromyces marxianus [6]) | MIC (Candida albicans [7]) | mortality [8] | zone of inhibition at 250 µg/mL (Candida parapsilosis [9]) | zone of inhibition at 250 µg/mL (Candida albicans [10]) | zone of inhibition at 250 µg/mL (Candida tropicalis [11]) | MIC (Candida tropicalis [12]) | MIC (Kluyveromyces marxianus [13]) | MIC (Candida parapsilosis [14]) | zone of inhibition at 250 µg/mL (Pichia kudriavzevii [15]) |
| --- | --- | --- | --- | --- | --- | --- | --- | --- | --- | --- | --- | --- | --- | --- | --- |
| O=C1C2=C(OC(c3ccccc3)C2)C(=O)c2ccccc21 (configuration not stated) | 11.3 µM (≈ 3.12 µg/mL) | 4.3 mm | 90.5 µM (≈ 25 µg/mL) | 14.9 µM (≈ 4.12 µg/mL) | -1.44% | 1.96 mm | 90.5 µM (≈ 25 µg/mL) | 0% | 6.88 mm | 17 mm | 7.7 mm | 45.2 µM (≈ 12.5 µg/mL) | 90.5 µM (≈ 25 µg/mL) | 90.5 µM (≈ 25 µg/mL) | 8.29 mm |
| O=C1C(=O)c2ccccc2C2=C1CC1(C=CC=C1)O2 | 6.55 µM (≈ 1.64 µg/mL) | 18.5 mm | 13.1 µM (≈ 3.28 µg/mL) | 6.55 µM (≈ 1.64 µg/mL) | -1.63% | 10.7 mm | 13.1 µM (≈ 3.28 µg/mL) | 8% | 6.14 mm | 5.85 mm | 7.19 mm | 3.27 µM (≈ 0.818 µg/mL) | 26.2 µM (≈ 6.56 µg/mL) | 13.1 µM (≈ 3.28 µg/mL) | 8.8 mm |
| O=C1C(=O)c2ccccc2C2=C1CC(c1ccccc1)O2 (configuration not stated) | 45.2 µM (≈ 12.5 µg/mL) | 11.9 mm | 2.82 µM (≈ 0.779 µg/mL) | 5.65 µM (≈ 1.56 µg/mL) | 1.98% | 10.8 mm | 90.5 µM (≈ 25 µg/mL) | 0% | 7.22 mm | 7.37 mm | 5.7 mm | 11.3 µM (≈ 3.12 µg/mL) | 5.65 µM (≈ 1.56 µg/mL) | 22.6 µM (≈ 6.25 µg/mL) | 12 mm |
| Cc1ccc(C2CC3=C(O2)C(=O)c2ccccc2C3=O)c(C)c1 (configuration not stated) | 41.1 µM (≈ 12.5 µg/mL) | 2.02 mm | 82.1 µM (≈ 25 µg/mL) | 41.1 µM (≈ 12.5 µg/mL) | -0.217% | 0 mm | 82.1 µM (≈ 25 µg/mL) | 0% | 0 mm | 1.38 mm | 6.42 mm | 41.1 µM (≈ 12.5 µg/mL) | 82.1 µM (≈ 25 µg/mL) | 82.1 µM (≈ 25 µg/mL) | 9.87 mm |
| O=C1C2=C(OC(c3ccc(F)cc3)C2)C(=O)c2ccccc21 (configuration not stated) | 21.2 µM (≈ 6.25 µg/mL) | 2.66 mm | 85 µM (≈ 25 µg/mL) | 42.5 µM (≈ 12.5 µg/mL) | -1.95% | 7.28 mm | 85 µM (≈ 25 µg/mL) | 0% | 3.86 mm | 10.3 mm | 3.31 mm | 42.5 µM (≈ 12.5 µg/mL) | 85 µM (≈ 25 µg/mL) | 42.5 µM (≈ 12.5 µg/mL) | 9.12 mm |
| O=C1C2=C(OC3(C=CC=C3)C2)C(=O)c2ccccc21 | 2.09 µM (≈ 0.523 µg/mL) | 16.6 mm | 12.8 µM (≈ 3.22 µg/mL) | 3.27 µM (≈ 0.818 µg/mL) | 5.92% | 9.3 mm | 13.1 µM (≈ 3.28 µg/mL) | 9% | 0 mm | 16.6 mm | 7.8 mm | 3.27 µM (≈ 0.818 µg/mL) | 52.5 µM (≈ 13.1 µg/mL) | 13.1 µM (≈ 3.28 µg/mL) | 10.8 mm |
| O=C1C2=C(OC(c3ccc(Cl)cc3)C2)C(=O)c2ccccc21 (configuration not stated) | 10.1 µM (≈ 3.12 µg/mL) | 0 mm | 80.5 µM (≈ 25 µg/mL) | 40.2 µM (≈ 12.5 µg/mL) | 1.16% | 5.27 mm | 80.5 µM (≈ 25 µg/mL) | 0% | 0 mm | 1.5 mm | 2.49 mm | 40.2 µM (≈ 12.5 µg/mL) | 80.5 µM (≈ 25 µg/mL) | 40.2 µM (≈ 12.5 µg/mL) | 6.14 mm |
| OC(Cn1cncn1)(Cn1cncn1)c1ccc(F)cc1F [FLUCONAZOLE] | 1.63 µM (≈ 0.499 µg/mL) | 12.8 mm | 104 µM (≈ 32 µg/mL) | 1.63 µM (≈ 0.499 µg/mL) |  | 21.2 mm | 1.63 µM (≈ 0.499 µg/mL) |  | 10.4 mm | 13 mm | 15 mm | 313 µM (≈ 96 µg/mL) | 1.63 µM (≈ 0.499 µg/mL) | 1.63 µM (≈ 0.499 µg/mL) | 9.64 mm |
| CCC(C)n1ncn(-c2ccc(N3CCN(c4ccc(OCC5COC(Cn6cncn6)(c6ccc(Cl)cc6Cl)O5)cc4)CC3)cc2)c1=O (configuration not stated) [ITRACONAZOLE] | 4.42 µM (≈ 3.12 µg/mL) | 19.4 mm | 0.7 µM (≈ 0.494 µg/mL) | 0.02 µM (≈ 0.0141 µg/mL) |  | 30.9 mm | 0.17 µM (≈ 0.12 µg/mL) |  | 26 mm | 23.1 mm | 23.6 mm | 0.17 µM (≈ 0.12 µg/mL) | 0.08 µM (≈ 0.0565 µg/mL) | 0.02 µM (≈ 0.0141 µg/mL) | 30.3 mm |
| O=C1C(=O)c2ccccc2C2=C1CC(c1ccc(Cl)cc1)O2 (configuration not stated) | 40.2 µM (≈ 12.5 µg/mL) | 9.01 mm | 40.2 µM (≈ 12.5 µg/mL) | 40.2 µM (≈ 12.5 µg/mL) | -1.51% | 1.96 mm | 80.5 µM (≈ 25 µg/mL) | 0% | 6.11 mm | 1.5 mm | 2.21 mm | 20.1 µM (≈ 6.25 µg/mL) | 5.02 µM (≈ 1.56 µg/mL) | 10.1 µM (≈ 3.12 µg/mL) | 5.65 mm |
| COc1cccc2c1C(=O)c1c(O)c3c(c(O)c1C2=O)C[C@@](O)(C(=O)CO)C[C@@H]3O[C@H]1C[C@H](N)[C@H](O)[C@H](C)O1 [DOXORUBICIN] |  |  |  |  |  |  |  | 36% |  |  |  |  |  |  |  |
| O=C1C(=O)c2ccccc2C2=C1CC(c1ccc(F)cc1)O2 (configuration not stated) | 42.5 µM (≈ 12.5 µg/mL) | 1.7 mm | 10.6 µM (≈ 3.12 µg/mL) | 42.5 µM (≈ 12.5 µg/mL) | -0.202% | 8.96 mm | 85 µM (≈ 25 µg/mL) | 0% | 8.12 mm | 1.37 mm | 8.59 mm | 42.5 µM (≈ 12.5 µg/mL) | 42.5 µM (≈ 12.5 µg/mL) | 42.5 µM (≈ 12.5 µg/mL) | 9.8 mm |
| O=C1C2=C(OC(c3ccc(Br)cc3)C2)C(=O)c2ccccc21 (configuration not stated) | 35.2 µM (≈ 12.5 µg/mL) | 0.49 mm | 70.4 µM (≈ 25 µg/mL) | 70.4 µM (≈ 25 µg/mL) | 2.53% | 0 mm | 70.4 µM (≈ 25 µg/mL) | 0% | 9.18 mm | 1.39 mm | 0 mm | 35.2 µM (≈ 12.5 µg/mL) | 70.4 µM (≈ 25 µg/mL) | 35.2 µM (≈ 12.5 µg/mL) | 7.5 mm |
| Cc1ccc(C2CC3=C(O2)c2ccccc2C(=O)C3=O)c(C)c1 (configuration not stated) | 82.1 µM (≈ 25 µg/mL) | 4.19 mm | 5.13 µM (≈ 1.56 µg/mL) | 41.1 µM (≈ 12.5 µg/mL) | 4.37% | 9.28 mm | 82.1 µM (≈ 25 µg/mL) | 17% | 9 mm | 2.93 mm | 7.51 mm | 41.1 µM (≈ 12.5 µg/mL) | 41.1 µM (≈ 12.5 µg/mL) | 10.3 µM (≈ 3.12 µg/mL) | 10.8 mm |
| CC1(C)CC2=C(O1)c1ccccc1C(=O)C2=O [NOR-BETA-LAPACHONE] | 54.8 µM (≈ 12.5 µg/mL) | 0.1 mm | 110 µM (≈ 25 µg/mL) | 6.84 µM (≈ 1.56 µg/mL) | -2.4% | 8.27 mm | 110 µM (≈ 25 µg/mL) | 11% | 7.41 mm | 1.64 mm | 4.78 mm | 54.8 µM (≈ 12.5 µg/mL) | 110 µM (≈ 25 µg/mL) | 27.4 µM (≈ 6.25 µg/mL) | 9.01 mm |
| O=C1C(=O)c2ccccc2C2=C1CC(c1ccc(Br)cc1)O2 (configuration not stated) | 35.2 µM (≈ 12.5 µg/mL) | 9.23 mm | 4.39 µM (≈ 1.56 µg/mL) | 2.19 µM (≈ 0.778 µg/mL) | 4.59% | 8.68 mm | 70.4 µM (≈ 25 µg/mL) | 0% | 7.75 mm | 6.17 mm | 0 mm | 8.79 µM (≈ 3.12 µg/mL) | 4.39 µM (≈ 1.56 µg/mL) | 8.79 µM (≈ 3.12 µg/mL) | 11.3 mm |
| Cc1ccc(C2CC3=C(O2)C(=O)c2ccccc2C3=O)cc1 (configuration not stated) | 43.1 µM (≈ 12.5 µg/mL) | 2.75 mm | 86.2 µM (≈ 25 µg/mL) | 43.1 µM (≈ 12.5 µg/mL) | -0.786% | 4.27 mm | 86.2 µM (≈ 25 µg/mL) | 0% | 0 mm | 10.4 mm | 7.28 mm | 43.1 µM (≈ 12.5 µg/mL) | 86.2 µM (≈ 25 µg/mL) | 43.1 µM (≈ 12.5 µg/mL) | 4.94 mm |
| Cc1ccc(C2CC3=C(O2)c2ccccc2C(=O)C3=O)cc1 (configuration not stated) | 10.8 µM (≈ 3.13 µg/mL) | 6.44 mm | 5.39 µM (≈ 1.56 µg/mL) | 2.69 µM (≈ 0.781 µg/mL) | 5.28% | 0 mm | 10.8 µM (≈ 3.13 µg/mL) | 0% | 0 mm | 0.39 mm | 2.26 mm | 43.1 µM (≈ 12.5 µg/mL) | 5.39 µM (≈ 1.56 µg/mL) | 10.8 µM (≈ 3.13 µg/mL) | 5.77 mm |
